{"source": "patent US6291458A", "about": "“Morpholinobenzamide salts” (AstraZeneca AB, priority 1997, dated 2001)", "key": {"[1]": {"assay": "Solubility and release rate of the base (background statement)", "assay_type": "physicochemical", "details": "base form"}, "[2]": {"assay": "Solubility determination in purified water at 25° C.", "assay_type": "physicochemical", "details": "HPLC assay", "protocol": "Excess of (R)-N-[5-methyl-8-(4-methylpiperazin-1-yl)-1,2,3,4-tetrahydro-2-naphthyl]- 4-morpholinobenzamide or it's corresponding salts was added to purified water. The solution was agitated overnight in a water bath, kept at 25° C. by using a thermostat (Julabo SW and U3, 60 strokes/min). The saturated solution was centrifuged and filtered through a 0.45 .quadrature.m Gelman GHP Acrodisc® 13 filter, diluted and assayed by HPLC."}, "[3]": {"details": "rate is different in the stomach and the intestines"}, "[4]": {"details": "water, salts, read-out: Solubility mg/mL (Solubility in Water at 25° C. for different salts)"}}, "note": "Where two headings read alike, the source gives them in different places.", "data": [{"compound": "Cc1ccc(N2CCN(C)CC2)c2c1CCC(NC(=O)c1ccc(N3CCOCC3)cc1)C2", "note": "(racemic) [compound of formula I, N-[5-methyl-8-(4-methylpiperazin-1-yl)-1,2,3,4-tetrahydro-2-naphthyl]-4-morpholinobenzamide]", "values": [{"measurement": "pH dependence of release rate", "setting": "[1]; [3]", "result": "pH dependent"}, {"measurement": "release rate", "setting": "[1]; [3]", "result": "slow"}, {"measurement": "solubility in water", "setting": "[1]; result in words", "result": "extremely low"}]}, {"compound": "Cc1ccc(N2CCN(C)CC2)c2c1CC[C@@H](NC(=O)c1ccc(N3CCOCC3)cc1)C2", "note": "[Base, (R)-N-[5-Methyl-8-(4-methylpiperazin-1-yl)-1,2,3,4-tetrahydro-2-naphthyl]-4-morpholinobenzamide]", "values": [{"measurement": "solubility", "setting": "[2]; water, base, read-out: Solubility in Water", "result": 0.034, "unit": "mg/mL"}]}, {"compound": "Br.Br.Cc1ccc(N2CCN(C)CC2)c2c1CC[C@@H](NC(=O)c1ccc(N3CCOCC3)cc1)C2", "note": "[Dihydrobromide, (R)-N-[5-methyl-8-(4-methylpiperazin-1-yl)-1,2,3,4-tetrahydro-2-naphthyl]-4-morpholinobenzamide dihydrobromide]", "values": [{"measurement": "solubility", "setting": "[2]; [4]", "result": 4.6, "unit": "mg/mL"}]}, {"compound": "Cc1ccc(N2CCN(C)CC2)c2c1CC[C@@H](NC(=O)c1ccc(N3CCOCC3)cc1)C2.O=C(O)CO", "note": "[Glycolate, (R)-N-[5-Methyl-8-(4-methylpiperazin-1-yl)-1,2,3,4-tetrahydro-2-naphthyl]-4-morpholinobenzamide Glycolate]", "values": [{"measurement": "solubility", "setting": "[2]; [4]", "result": "> 23.6", "unit": "mg/mL"}]}, {"compound": "Cc1ccc(N2CCN(C)CC2)c2c1CC[C@@H](NC(=O)c1ccc(N3CCOCC3)cc1)C2", "note": "[L-Ascorbate, (R)-N-[5-Methyl-8-(4-methylpiperazin-1-yl)-1,2,3,4-tetrahydro-2-naphthyl]-4-morpholinobenzamide L-Ascorbate]", "values": [{"measurement": "Solubility mg/mL (Solubility in Water at 25° C. for different salts)", "setting": "[2]; salts", "result": 4.2, "unit": "mg/mL"}]}, {"compound": "C[C@H](O)C(=O)O.Cc1ccc(N2CCN(C)CC2)c2c1CC[C@@H](NC(=O)c1ccc(N3CCOCC3)cc1)C2", "note": "[L-Lactate, (R)-N-[5-Methyl-8-(4-methylpiperazin-1-yl)-1,2,3,4-tetrahydro-2-naphthyl]-4-morpholinobenzamide L-Lactate]", "values": [{"measurement": "solubility", "setting": "[2]; salts, read-out: Solubility mg/mL (Solubility in Water at 25° C. for different salts)", "result": 18.8, "unit": "mg/mL"}]}, {"compound": "Cc1ccc(N2CCN(C)CC2)c2c1CC[C@@H](NC(=O)c1ccc(N3CCOCC3)cc1)C2", "note": "[Salicylate, (R)-N-[5-Methyl-8-(4-methylpiperazin-1-yl)-1,2,3,4-tetrahydro-2-naphthyl]-4-morpholinobenzamide Salicylate]", "values": [{"measurement": "Solubility mg/mL (Solubility in Water at 25° C. for different salts)", "setting": "[2]; salts", "result": 0.29, "unit": "mg/mL"}]}]}
